Laboratory results as given in patent US8329739B2, “Phenylimidazole compounds” (Otsuka Pharmaceutical Factory, Inc., priority 2009, dated 2012).

Key:
[1] = molecular target: T1, LPL (lipoprotein lipase) (Mus musculus, UniProt P11152); experiment: Confirmation test of LPL activation effect in mouse skeletal muscle cells (C2C12 cells); format: cell-based; settings: 8 hours exposure, vs control group
T1 construct: endogenous in cells; host or cells: C2C12 cells, differentiated
T1 sequence (P11152 28-474): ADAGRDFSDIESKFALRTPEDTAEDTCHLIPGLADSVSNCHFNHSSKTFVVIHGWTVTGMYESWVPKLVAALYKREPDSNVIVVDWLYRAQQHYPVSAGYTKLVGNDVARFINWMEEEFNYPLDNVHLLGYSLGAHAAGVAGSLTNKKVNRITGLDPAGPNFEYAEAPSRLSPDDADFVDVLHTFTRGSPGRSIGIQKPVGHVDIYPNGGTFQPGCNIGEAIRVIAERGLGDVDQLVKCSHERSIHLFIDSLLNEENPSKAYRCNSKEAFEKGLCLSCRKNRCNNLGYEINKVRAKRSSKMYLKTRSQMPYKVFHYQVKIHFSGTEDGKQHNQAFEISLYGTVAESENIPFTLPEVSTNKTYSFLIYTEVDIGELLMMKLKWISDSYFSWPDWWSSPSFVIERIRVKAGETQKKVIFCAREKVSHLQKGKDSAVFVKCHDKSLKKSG
Experimental: Human skeletal muscle cells (human skeletal muscle myoblasts) or mouse skeletal muscle cells (C2C12 cells) that were seeded onto plates, cultured, and differentiated were exposed to a 0.3% dimethyl sulfoxide-containing culture medium in which the compound of the present invention was dissolved (concentration: 10 μM or 30 μM). The medium was removed 8 hours after exposure, 10 mM of Tris-HCl buffer (150 mM NaCl, 10 μ/mL; containing heparin sodium) was added to the cells, and the cells were incubated at 37° C. in the presence of 5% CO2 for 10 minutes. LPL activity in the supernatant was measured using an LPL activity assay kit (made by Roar Biomedical Inc.). LPL activity was evaluated based on the increase in fluorescence intensity 10 to 70 minutes after mixing the supernatant with the LPL substrate. The mean value of the increase in fluorescence intensity of the cells exposed to a 0.3% dimethyl sulfoxide-containing culture medium […] was used as mean value of the control group. Note that the compounds of Examples 18, 19, 32, 45 and 57 were tested using human skeletal muscle cells, and other compounds were tested using mouse skeletal muscle cells. The rate of increase (%) was calculated from the measured values of LPL activity in the control group and the experimental group, according to the following formula. Rate of increase in LPL activity (%)=[(mean value of the experimental group)−(mean value of the control group)]/(mean value of the control group)×100

| Structure (SMILES) | Rate of increase in LPL activity ([1]; amount of addition 10 μM) | Rate of increase in LPL activity ([1]; amount of addition 30 μM) | melting point |
| --- | --- | --- | --- |
| COc1cc(OCc2ccc(Cl)cc2F)ccc1-c1c[nH]c(-c2ccccc2)n1.Cl [Example 139] | 71% | 128% | 249 to 251 °C |
| COc1cc(OCc2ccccc2)ccc1-c1c[nH]c(-c2ccc(F)cc2)n1.Cl [Example 42] | 47% | 131% | 217 to 220 °C |
| COc1cc(OCc2ccccc2)ccc1-c1c[nH]c(-c2cccc(F)c2)n1.Cl [Example 54] | 18% | 87% | 231 to 235 °C |
| COc1cc(OCc2ccc(C#N)cc2)ccc1-c1c[nH]c(-c2ccc(C(F)(F)F)cc2)n1 [Example 17] | 81% | 143% | 182 to 184 °C |
| COc1cc(OCc2ccc(Br)cc2F)ccc1-c1c[nH]c(-c2ccc(C(=O)O)cc2)n1.Cl [Example 94] | 9% | 15% | > 250 °C |
| COc1cc(OCc2ccccc2)ccc1-c1c[nH]c(-c2ccc(C(F)(F)F)cc2)n1 [Example 13] | 46% | 234% | 231 to 232 °C |
| COc1cc(-c2c[nH]c(-c3ccc(C)cc3)n2)ccc1OCc1ccccc1.Cl [Example 5] | 14% | 42% | 244 to 245 °C |
| COc1cc(OCc2ccc(Br)cc2F)ccc1-c1c[nH]c(-c2cc(Cl)cc(Cl)c2)n1 [Example 91] | 28% | 95% | 260 to 265 °C |
| COc1cc(OCc2ccc(Br)cc2F)ccc1-c1c[nH]c(-c2cccc(C(F)(F)F)c2)n1.Cl [Example 58] | 45% | 150% | > 250 °C |
| COc1cc(-c2c[nH]c(-c3ccc(F)cc3)n2)ccc1OCc1ccccc1 [Example 36] | 6% | 113% | 214 to 216 °C |
| COc1cc(OCc2ccc(Cl)cc2)ccc1-c1c[nH]c(-c2ccc(Cl)c(Cl)c2)n1 [Example 110] | 37% | 106% | 145 to 148 °C |
| COc1cc(OCc2ccc(C#N)cc2)ccc1-c1c[nH]c(-c2ccsc2)n1 [Example 65] | 24% | 46% | 183 to 186 °C |
| COc1cc(-c2c[nH]c(-c3ccsc3)n2)ccc1OCc1ccc(C#N)cc1 [Example 66] | 24% | 32% | 176 to 180 °C |
| COc1cc(OCc2ccccc2)ccc1-c1c[nH]c(-c2ccccc2)n1.Cl [Example 7] | 69% | 197% | 229 to 230 °C |
| COc1cc(-c2c[nH]c(-c3cc(Cl)cc(Cl)c3)n2)ccc1OCc1ccc(Cl)cc1 [Example 33] | 60% | 84% | 142 to 145 °C |
| COc1cc(OCc2ccc(Br)cc2F)ccc1-c1c[nH]c(-c2ccsc2)n1.Cl [Example 68] | 10% | 289% | 247 to 249 °C |
| COc1cc(OCc2ccc(Cl)cc2)ccc1-c1c[nH]c(-c2ccc(F)cc2)n1 [Example 43] | 64% | 157% | 174 to 176 °C |
| COc1cc(-c2c[nH]c(-c3ccc(C(F)(F)F)cc3)n2)ccc1OCc1ccc(C#N)cc1 [Example 55] | 49% | 94% | 231 to 233 °C |
| COc1cc(-c2nc(-c3ccc(F)cc3)[nH]c2C)ccc1OCc1ccccc1 [Example 49] | 47% | 147% | 214 to 218 °C |
| COc1ccc(-c2nc(-c3ccc(OCc4ccc(Br)cc4F)cc3OC)c[nH]2)cc1.Cl [Example 86] | 40% | 375% | > 250 °C |

| Structure (SMILES) | Rate of increase in LPL activity ([1]; amount of addition 10 μM) | Rate of increase in LPL activity ([1]; amount of addition 30 μM) | melting point |
| --- | --- | --- | --- |
| COc1cc(-c2c[nH]c(-c3ccc(F)cc3)n2)ccc1OCc1ccccc1C#N [Example 50] | 20% | 70% | 204 to 206 °C |
| COc1cc(OCc2ccc(Cl)cc2F)ccc1-c1c[nH]c(-c2ccc(C(F)(F)F)cc2)n1 [Example 132] | 35% | 213% | 165 to 166 °C |
| COc1cc(-c2c[nH]c(-c3ccsc3)n2)ccc1OCc1ccccc1C#N.Cl [Example 73] | 55% | 108% | 236 to 237 °C |
| COc1cc(OCc2ccc(C#N)cc2)ccc1-c1c[nH]c(-c2ccc(Cl)c(Cl)c2)n1 [Example 111] | 61% | 81% | 137 to 140 °C |
| COc1cc(OCc2ccc(Br)cc2F)ccc1-c1c[nH]c(-c2ccccc2C(F)(F)F)n1.Cl [Example 81] | 32% | 89% | 224 to 228 °C |
| COc1cc(OCc2ccc(C#N)cc2)ccc1-c1c[nH]c(-c2ccc(Cl)cc2)n1 [Example 76] | 115% | 263% | 186 to 187 °C |
| COc1cc(OCc2ccc(Cl)cc2)ccc1-c1c[nH]c(-c2ccccc2)n1.Cl [Example 10] | 46% | 275% | 244 to 246 °C |
| COc1cccc(-c2nc(-c3ccc(OCc4ccccc4)cc3OC)c[nH]2)c1.Cl [Example 130] | 9% | 170% | 236 to 238 °C |
| COc1ccc(-c2nc(-c3ccc(OCc4ccccc4)cc3OC)c[nH]2)cc1.Cl [Example 128] | 49% | 208% | 154 to 165 °C |
| COc1cc(OCc2ccc(C#N)cc2)ccc1-c1c[nH]c(-c2ccc(C(C)(C)C)cc2)n1 [Example 116] | 36% | 84% | 177 to 184 °C |
| COc1cc(-c2c[nH]c(-c3cccc(C(F)(F)F)c3)n2)ccc1OCc1ccc(Br)cc1F [Example 51] | 16% | 115% | 173 to 174 °C |
| COc1cc(OCc2ccc(Br)cc2F)ccc1-c1c[nH]c(-c2ccc(Cl)c(Cl)c2)n1 [Example 102] | 44% | 88% | 260 to 262 °C |
| COc1cc(OCc2ccc(Cl)cc2)ccc1-c1c[nH]c(-c2ccc(C(C)(C)C)cc2)n1 [Example 115] | 62% | 88% | 154 to 157 °C |
| COc1cc(OCc2ccccc2)ccc1-c1c[nH]c(-c2cccc(C(F)(F)F)c2)n1 [Example 126] | 99% | 297% | 159 to 162 °C |
| COc1cc(-c2c[nH]c(-c3ccccc3)n2)ccc1OCc1ccc(Cl)cc1 [Example 2] | 13% | 38% | 87 to 89 °C |
| COc1cc(OCc2ccccc2)ccc1-c1c[nH]c(-c2ccc(Cl)c(Cl)c2)n1.Cl [Example 124] | 93% | 113% | 242 to 245 °C |
| COc1cc(-c2c[nH]c(-c3ccoc3)n2)ccc1OCc1ccccc1 [Example 26] | 31% | 51% | 177 to 179 °C |
| COc1ccc(-c2nc(-c3ccc(OCc4ccc(C#N)cc4)cc3OC)c[nH]2)cc1.Cl [Example 87] | 23% | 144% | 183 to 186 °C |
| COC(=O)c1ccc(-c2nc(-c3ccc(OCc4ccc(Br)cc4F)cc3OC)c[nH]2)cc1 [Example 92] | 42% | 123% | 158 to 159 °C |
